“Also recorded” adds a separate entry of the source.
Legend:
pepsin = target: T1, pepsin (Sus scrofa, UniProt P00791); experiment: Pepsin digestion assay in simulated gastric fluid with SDS-PAGE analysis; assay type: in vitro ADME; conditions: SGF pH 1.2 with pepsin, 10000 Units pepsin per 1 mg test protein, 37° C., samples at 0, 0.5, 15 minutes
T1 construct: purchased Sigma-Aldrich (US) P7000
Procedure: SGF contains 0.084 M HCl, 0.035 M NaCl, 4000 U of pepsin per reaction mixture and has a pH level of 1.2 according to the United States Pharmacopeia (1995). A ratio of 10000 Units of pepsin activity to 1 mg of test protein was used throughout the assay, which is based on an evaluation of the average activity of pepsin recommended in the United States Pharmacopeia (24th edition, 2000) with some modifications. Pepsin (ref. #P7000) was purchased from Sigma-Aldrich (US). All proteins that were used were dissolved in 50 mM Tris-HCl (pH 9.5) at a concentration of 5 mg mL^−1. The reaction mixture contained 1.52 mL of SGF preheated to 37° C. before the addition of 0.08 mL of protein solution (Thomas et al., 2004). The mixture was placed into a thermomixer at 37° C. and was shaken at 400 rpm. For denaturating SDS-polyacrylamide gel electrophoresis analysis (SDS-PAGE) samples of 160 μl were removed at 0 minutes, 0.5 minutes, and 15 minutes after initiation.
SDS-PAGE was performed to analyze and visually inspect stained protein bands whether the protein band is still intact or fragmented after the digestion assay. […]
Each 160 μl of the digestion samples was quenched by adding 56 μl of 200 mM NaHCO3 as neutralization step and 56 μl 4× Laemmli (Laemmli 1970) buffer for electrophoresis. Samples were immediately heated up to 99° C. for 10 minutes and analyzed directly or stored at −20° C. […]

laccase [1] = experiment: Laccase mediator system (LMS) and oxycodone: oxygen concentration measurement; assay type: biochemical; conditions: 10 units laccase ml−1, 1000 mgL−1 oxycodone; for oxygen concentration after the addition of oxycodone, per mediator: mediator 2 mM
Procedure: During the reaction oxygen acts as electron acceptor and is reduced to water by laccases while the mediators are oxidized. The concentration of oxygen was measured as described above. Oxygen is consumed until the mediator is fully oxidized. […] The second step of the reaction is initiated by addition of the target substrate, which is consequently oxidized by the mediators.
In the present experiments the final reaction mixtures contained 0.2 to 6 mM mediator, 1-10 units of laccase per ml and 100-3000 mg L^−1 opioid.
The different mediators were used at concentrations of 2 mM with 10 units laccase ml^−1 and 1000 mgL^−1 oxycodone. The first drop in oxygen concentration represents the oxidation of the respective mediators with the laccase, the second drop—which took place just after the addition of the opioid—was due to the subsequent oxidation of the opioid.

laccase [2] = experiment: LMS and oxycodone: HPLC-MS/TOF measurements; conditions: laccase mediator system
laccase [3] = experiment: Thin layer chromatography of enzymatic conversion; assay type: biochemical; conditions: samples at 2, 10, 30, 60, 120 minutes of enzymatic reaction
laccase MTL = experiment: Polymerization of morphine with laccase from Myceliophthora thermophila (high concentrations); conditions: 50 mM sodium phosphate buffer pH 7, MTL 10 U to 100 U
laccase [4] = experiment: LMS and methadone: oxygen measurements; assay type: biochemical
[5] = test system: laccase from Myceliophthora thermophila (MtL); experiment: Oxygen measurement of laccase catalysed oxidation of opioids (MtL); assay type: biochemical; conditions: MtL 10 U/ml, substrate 2 mg/ml, distilled water, room temperature, optical oxygen sensor
Excerpt: (§1) Two different laccases were used to achieve elimination of opioids—one of them originated from Trametes villosa (TvL), the other one from Myceliophthora thermophila (MtL).

[6] = test system: laccase from Trametes villosa (TvL); experiment: Oxygen measurement of laccase catalysed oxidation of opioids (TvL); assay type: biochemical; conditions: TvL 10 U/ml, substrate 2 mg/ml, distilled water, room temperature, optical oxygen sensor
Excerpt: as §1

[7] = test system: horseradish peroxidase and a laccase originating from Myceliophthora thermophila (MtL); experiment: Inactivation of oxycodone with an enzyme system consisting of peroxidase/laccase; assay type: biochemical; conditions: HRP 10 U/ml, Glucose Oxidase 20 U/ml, Laccase 25 U/ml, Oxycodone 10 mg/ml, Glucose 10 mg/ml, distilled water, room temperature
Excerpt: In the present example, the development of an appropriate enzyme system to eliminate opioids from solution can be shown. A peroxidase is used to produce an hydroxyl group in oxycodone while the such “activated” molecule is further transformed by the laccase. Moreover, optimized reaction conditions for effective conversion of the opioid solution preventing administration through injection are provided. Finally, the function of the system is verified by showing the inactivation of the opioid destroying enzymes proteolytically when the drugs are administered as foreseen.
To achieve the elimination of oxycodone, the following enzymes are used: the horseradish peroxidase and a laccase originating from Myceliophthora thermophila (MtL). Glucose Oxidase (GOD, from Aspergillus niger) is used to generate H2O2 which is required for the peroxidase reaction.
To determine whether the laccase act on activated oxycodone an optical oxygen sensor is used. Laccases use oxygen as electron acceptor, consequently the oxygen concentration decreases upon substrate oxidation.
500 μL samples are taken and put into 500 μL of methanol (MeOH) to precipitate the enzyme. The solution is centrifuged using Vivaspin 500 and transferred to an HPLC vial.

[8] = test system: Humicola insolens cutinase (HiC); assay type: biochemical
[9] = target: T2, Thermobifida cellulosilytica cutinase 1 (THC) (Thermobifida cellulosilytica, UniProt E9LVH8); assay type: biochemical
T2 construct: made in house
T2 sequence (E9LVH8 1-262): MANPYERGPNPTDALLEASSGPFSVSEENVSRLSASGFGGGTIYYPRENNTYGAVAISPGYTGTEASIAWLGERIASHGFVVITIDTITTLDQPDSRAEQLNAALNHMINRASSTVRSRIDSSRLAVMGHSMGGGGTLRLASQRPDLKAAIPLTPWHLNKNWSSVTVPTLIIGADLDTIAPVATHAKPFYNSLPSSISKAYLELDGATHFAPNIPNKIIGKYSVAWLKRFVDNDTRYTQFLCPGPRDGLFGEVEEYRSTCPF

T1 sequence (P00791 60-385): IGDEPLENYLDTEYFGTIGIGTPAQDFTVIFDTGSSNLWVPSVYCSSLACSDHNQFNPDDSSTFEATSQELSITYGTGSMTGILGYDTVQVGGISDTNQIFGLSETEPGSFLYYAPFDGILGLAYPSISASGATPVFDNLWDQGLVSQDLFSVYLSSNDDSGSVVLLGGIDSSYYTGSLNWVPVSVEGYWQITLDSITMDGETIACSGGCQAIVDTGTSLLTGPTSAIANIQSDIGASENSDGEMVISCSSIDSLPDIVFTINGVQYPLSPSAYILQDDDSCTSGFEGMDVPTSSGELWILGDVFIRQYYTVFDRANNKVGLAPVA

HRP: horse radish peroxidase
proteolytic degradation of the enzyme (protein band on SDS-PAGE) (pepsin): very susceptible to proteolytic degradation

CCOc1cc(C=O)ccc1O [ethylvanillin]
oxygen concentration after the addition of oxycodone, per mediator (laccase [1]): showed a drop in oxygen concentration

O=C(O)c1cc(O)c(O)c(O)c1 [gallic acid]
oxygen concentration after the addition of oxycodone, per mediator (laccase [1]): no apparent effect
effect of the mediator on oxycodone (MS-TOF analysis) (laccase [2]): no apparent effect

CN1CC[C@]23c4c5ccc(O)c4O[C@H]2[C@@H](O)C=C[C@H]3[C@H]1C5 [morphine, 4,5[alpha]-epoxy-17-methyl-7-morphinen-3,6[alpha]-diol]
time after which new dots appear on the TLC plate (new product formed) (laccase [3]): 2 min
faster degradation of morphine with 10 times more laccase (laccase MTL): ~10 times

COc1cc(C=O)ccc1O [vanillin]
oxygen concentration after the addition of oxycodone, per mediator (laccase [1]): showed a drop in oxygen concentration

CCn1c(=NN=c2sc3cc(S(=O)(=O)O)ccc3n2CC)sc2cc(S(=O)(=O)O)ccc21 [ABTS, 2,2′-azino-bis-(3-ethylbenzthiazoline-6-sulfonic acid)]
effect of the mediator in LMS with methadone (oxygen measurement) (laccase [4]; mediators tested incl. syringic acid, TEMPO, syringol, ABTS): best effect

CCC(=O)C(CC(C)N(C)C)(c1ccccc1)c1ccccc1 (racemic) [methadone, (±)-6-dimethylamino-4,4-diphenol-3-heptanone]
oxygen concentration in LMS with methadone (laccase [4]; mediator ABTS): decline in oxygen concentration

COc1cc(C(=O)O)cc(OC)c1O [syringic acid]
oxygen concentration after the addition of oxycodone, per mediator (laccase [1]): showed a drop in oxygen concentration

CC[C@@H](c1cccc(O)c1)[C@@H](C)CN(C)C [tapentadol]
oxygen concentration in solution (laccase oxidation of the opioid) [5]: much slower
oxygen concentration in solution (laccase oxidation of the opioid) [6]: drops to almost 0% oxygen
time after which new dots appear on the TLC plate (new product formed) (laccase [3]): 2 min
time after which the reference dot disappears on TLC (all converted) (laccase [3]): 120 min

COc1ccc2c3c1O[C@H]1C(=O)CC[C@@]4(O)[C@@H](C2)N(C)CC[C@]314 [oxycodone, 4,5[alpha]-epoxy-14-hydroxy-3-methoxy-17-methyl-6-morphinanone]
oxygen concentration in solution (laccase oxidation of the opioid) [5]: not capable of converting oxycodone
oxygen concentration in solution (laccase oxidation of the opioid) [6]: not capable of converting oxycodone
enzymatic conversion of oxycodone (oxygen consumption measurements, HPLC-MS) [7]: successfully converted; also recorded: converted to a product which precipitated
oxidation of oxycodone in the laccase mediator system (laccase [1]; mediators vanillin, ethylvanillin, syringic acid 2 mM): oxidation of oxycodone
oxycodone concentration (HPLC-MS/TOF) (laccase [2]; mediators 2 mM, vanillin also 6 mM): decrease in oxycodone concentration

CC(=O)Oc1ccc2c3c1O[C@H]1[C@@H](OC(C)=O)C=C[C@H]4[C@@H](C2)N(C)CC[C@@]341 [diacetylmorphine]
DAM concentration [8]: declines
morphine concentration formed from DAM [8]: only increased in the samples that were incubated at 50 °C
product formed from DAM at lower temperatures [8]: only monoacetylmorphine is produced
diacetylmorphine hydrolyzed (total acetate yield, HPLC/RI) ([8]; pH 7): more than 50%
DAM concentration [9]: declines
morphine concentration formed from DAM [9]: only increased in the samples that were incubated at 50 °C
product formed from DAM at lower temperatures [9]: only monoacetylmorphine is produced
diacetylmorphine hydrolyzed (total acetate yield, HPLC/RI) ([9]; pH 7): more than 50%

Source: US11077196B2, “Abuse-deterrent pharmaceutical composition” (priority 2016, dated 2021)
